Assay [1] has as its target S. aureus Alpha hemolysin (Staphylococcus aureus, UniProt P09616). Nature of the assay: cell-based. The note with it: A549-LDH Assay activity.
Assay [2] concerns the target hemolysin alpha from Staphylococcus aureus (Staphylococcus aureus, UniProt P09616). Nature of the assay: cell-based.

Experimental findings from patent US20240376084A1, “INHIBITORS OF ALPHA-HEMOLYSIN OF STAPHYLOCOCCUS AUREUS” (Helmholtz-Zentrum Fur Infektionsforschung GmbH, priority 2021, published 2024) are described below.

hemolysin alpha from Staphylococcus aureus, sequence (P09616 27-319 limits assumed): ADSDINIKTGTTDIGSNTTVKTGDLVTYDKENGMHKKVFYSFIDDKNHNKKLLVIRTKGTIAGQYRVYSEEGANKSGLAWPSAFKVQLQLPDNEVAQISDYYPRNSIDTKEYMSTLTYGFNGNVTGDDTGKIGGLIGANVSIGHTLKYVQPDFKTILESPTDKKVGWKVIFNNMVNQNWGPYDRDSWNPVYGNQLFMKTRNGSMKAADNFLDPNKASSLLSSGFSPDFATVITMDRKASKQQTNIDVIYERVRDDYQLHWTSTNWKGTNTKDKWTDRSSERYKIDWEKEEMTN
S. aureus Alpha hemolysin, sequence (P09616 27-319 limits assumed): as above

A word on the EC50: it is the concentration giving half of the maximal effect. A lower EC50 goes with greater potency. In general, IC50 refers to the concentration at which inhibition is half-maximal. A lower IC50 goes with greater potency in that assay. As to `Cc1ccccc1-c1c(C)cc(NS(=O)(=O)c2cc3[nH]c(=O)c(=O)[nH]c3cc2C)cc1C` [Compound 125, 7-methyl-2,3-dioxo-N-(2,2′,6-trimethyl-[1,1′-biphenyl]-4-yl)-1,2,3,4-tetrahydroquinoxaline-6-sulfonamide], the EC50 in assay [1] is 1000 to 6000 nM. This compound had a half-maximal inhibitory concentration (IC50) in assay [2] of 100 to 1000 nM.
In the same order, the values of `Cc1cc2[nH]c(=O)c(=O)[nH]c2cc1S(=O)(=O)Nc1ccc(-c2ccccc2Cl)c(Cl)c1` [Compound 77, N-(2,2′-dichloro-[1,1′-biphenyl]-4-yl)-7-methyl-2,3-dioxo-1,2,3,4-tetrahydroquinoxaline-6-sulfonamide] are 100 to 1000 nM and 100 to 1000 nM.
`N#Cc1cc2[nH]c(=O)c(=O)[nH]c2cc1S(=O)(=O)Nc1ccc(OC(F)(F)F)cc1` [Compound 216, 7-cyano-2,3-dioxo-N-(4-(trifluoromethoxy)phenyl)-1,2,3,4-tetrahydroquinoxaline-6-sulfonamide]: the EC50 in assay [1] and in assay [2] was 100 to 1000 nM each time.
For `Cc1cc2[nH]c(=O)c(=O)[nH]c2cc1S(=O)(=O)Nc1cc(C)c(-c2cc[nH]c2)c(C)c1` [Compound 135, N-(3,5-dimethyl-4-(1H-pyrrol-3-yl)phenyl)-7-methyl-2,3-dioxo-1,2,3,4-tetrahydroquinoxaline-6-sulfonamide], the EC50 in assay [1] lay in the range of 100 to 1000 nM. The compound also registered a concentration for half-maximal inhibition (IC50) in assay [2] of 100 to 1000 nM.
With `CCCc1ccc(NS(=O)(=O)c2cc3[nH]c(=O)c(=O)[nH]c3cc2Cl)cc1` [Compound 55, 7-chloro-2,3-dioxo-N-(4-propylphenyl)-1,2,3,4-tetrahydroquinoxaline-6-sulfonamide], the 50% effective concentration (EC50) in assay [1] fell in the range of 30 to 100 nM. The compound further came in with a half-inhibitory concentration (IC50) in assay [2] of 30 to 100 nM.
Take `Cc1cc2[nH]c(=O)c(=O)[nH]c2cc1S(=O)(=O)Nc1ccc(-c2cccc(N3CCCC3)c2)c(Cl)c1` [Compound 6, N-(2-chloro-3′-(pyrrolidin-1-yl)-[1,1′-biphenyl]-4-yl)-7-methyl-2,3-dioxo-1,2,3,4-tetrahydroquinoxaline-6-sulfonamide]: the half-maximal effective concentration (EC50) in assay [1] was in the range of 100 to 1000 nM. The IC50 in assay [2] was under 30 nM.
The corresponding values for `O=c1[nH]c2cc(Cl)c(S(=O)(=O)Nc3ccc(C4CCCCC4)cc3)cc2[nH]c1=O` [Compound 170, 7-chloro-N-(4-cyclohexylphenyl)-2,3-dioxo-1,2,3,4-tetrahydroquinoxaline-6-sulfonamide] are 100 to 1000 nM and 100 to 1000 nM.
With `O=c1[nH]c2cc(NCCO)c(S(=O)(=O)Nc3ccc(OC(F)(F)F)cc3)cc2[nH]c1=O` [Compound 281, 7-(2-hydroxyethylamino)-2,3-dioxo-N-[4-(trifluoromethoxy)phenyl]-1,4-dihydroquinoxaline-6-sulfonamide], the EC50 in assay [1] and in assay [2] was under 30 nM each time.
Consider `Cc1cc2[nH]c(=O)c(=O)[nH]c2cc1S(=O)(=O)Nc1ccc(-c2ccc3[nH]ccc3c2)c(Cl)c1` [Compound 270, N-[3-chloro-4-(1H-indol-5-yl)phenyl]-7-methyl-2,3-dioxo-1,4-dihydroquinoxaline-6-sulfonamide], for which the EC50 in assay [1] is 30 to 100 nM; in assay [2] it was 100 to 1000 nM.
The corresponding values for `Cc1cc2[nH]c(=O)c(=O)[nH]c2cc1S(=O)(=O)Nc1ccc(-c2cccc(Br)c2)c(Cl)c1` [Compound 310, N-[4-(3-bromophenyl)-3-chloro-phenyl]-7-methyl-2,3-dioxo-1,4-dihydroquinoxaline-6-sulfonamide] are 100 to 1000 nM and under 30 nM.
As for `Cc1cc2[nH]c(=O)c(=O)[nH]c2cc1S(=O)(=O)Nc1ccc(-c2ccccc2N(C)C)cc1` [Compound 119, N-(2′-(dimethylamino)-[1,1′-biphenyl]-4-yl)-7-methyl-2,3-dioxo-1,2,3,4-tetrahydroquinoxaline-6-sulfonamide], in assay [1], the half-maximal effective concentration (EC50) was 100 to 1000 nM. This compound also registered an IC50 in assay [2] of 100 to 1000 nM.
Consider `Cc1cccc(-c2ccc(NS(=O)(=O)c3cc4[nH]c(=O)c(=O)[nH]c4cc3C)cc2)c1` [Compound 112, 7-methyl-N-(3′-methyl-[1,1′-biphenyl]-4-yl)-2,3-dioxo-1,2,3,4-tetrahydroquinoxaline-6-sulfonamide], for which, in assay [1], the EC50 fell in the range of 100 to 1000 nM. The compound further had an IC50 in assay [2] of 100 to 1000 nM.
`[2H]C([2H])([2H])Oc1ccc(-c2ccc(NS(=O)(=O)c3cc4[nH]c(=O)c(=O)[nH]c4cc3C)cc2Cl)cc1` [Compound 267, N-[3-chloro-4-[4-(trideuteriomethoxy)phenyl]phenyl]-7-methyl-2,3-dioxo-1,4-dihydroquinoxaline-6-sulfonamide]: the 50% effective concentration (EC50) in assay [1] was 30 to 100 nM; in assay [2] it was under 30 nM.
The corresponding values for `Cc1cc2[nH]c(=O)c(=O)[nH]c2cc1S(=O)(=O)Nc1ccc(SC(F)(F)F)cc1` [Compound 396, 7-methyl-2,3-dioxo-N-[4-(trifluoromethylsulfanyl)phenyl]-1,4-dihydroquinoxaline-6-sulfonamide] are 30 to 100 nM and 100 to 1000 nM.
The corresponding values for `Cc1cc2[nH]c(=O)c(=O)[nH]c2cc1S(=O)(=O)Nc1ccc(-c2ccc3c(c2)OC(F)(F)O3)c(Cl)c1` [Compound 287, N-[3-chloro-4-(2,2-difluoro-1,3-benzodioxol-5-yl)phenyl]-7-methyl-2,3-dioxo-1,4-dihydroquinoxaline-6-sulfonamide] are 30 to 100 nM and 30 to 100 nM.
In the same order, the values of `COc1ncc(-c2ccc(NS(=O)(=O)c3cc4[nH]c(=O)c(=O)[nH]c4cc3C)cc2Cl)cn1` [Compound 260, N-[3-chloro-4-(2-methoxypyrimidin-5-yl)phenyl]-7-methyl-2,3-dioxo-1,4-dihydroquinoxaline-6-sulfonamide] are 100 to 1000 nM and 100 to 1000 nM.
Turning to `O=c1[nH]c2cc(Cl)c(S(=O)(=O)Nc3ccc(C4CC4)cc3)cc2[nH]c1=O` [Compound 85, 7-chloro-N-(4-cyclopropylphenyl)-2,3-dioxo-1,2,3,4-tetrahydroquinoxaline-6-sulfonamide], in assay [1], the EC50 was 30 to 100 nM. The same compound returned an IC50 in assay [2] of 100 to 1000 nM.
In the same order, the values of `Cc1cc(NS(=O)(=O)c2cc3[nH]c(=O)c(=O)[nH]c3cc2C)ccc1-c1ccccc1` [Compound 17, 7-methyl-N-(2-methyl-[1,1′-biphenyl]-4-yl)-2,3-dioxo-1,2,3,4-tetrahydroquinoxaline-6-sulfonamide] are under 30 nM and under 30 nM.
Take `Cc1cc2[nH]c(=O)c(=O)[nH]c2cc1S(=O)(=O)Nc1ccc(-c2ccc3cc[nH]c3c2)c(Cl)c1` [Compound 271, N-[3-chloro-4-(1H-indol-6-yl)phenyl]-7-methyl-2,3-dioxo-1,4-dihydroquinoxaline-6-sulfonamide]: the EC50 in assay [1] and in assay [2] was under 30 nM each time.
In assay [1], `Cc1cc2[nH]c(=O)c(=O)[nH]c2c(F)c1S(=O)(=O)Nc1ccc(Br)c(Cl)c1` [Compound 63, N-(4-bromo-3-chlorophenyl)-5-fluoro-7-methyl-2,3-dioxo-1,2,3,4-tetrahydroquinoxaline-6-sulfonamide] gave an EC50 of 1000 to 6000 nM. The same compound had a concentration for half-maximal inhibition (IC50) in assay [2] of 30 to 100 nM.
With `O=c1[nH]c2cc(C(F)F)c(S(=O)(=O)Nc3ccc(OC(F)(F)F)cc3)cc2[nH]c1=O` [Compound 218, 7-(difluoromethyl)-2,3-dioxo-N-(4-(trifluoromethoxy)phenyl)-1,2,3,4-tetrahydroquinoxaline-6-sulfonamide], the concentration for a half-maximal effect (EC50) in assay [1] and in assay [2] was 100 to 1000 nM in each case.
